Assay results published in patent US11053218B2, “3-(1-oxoisoindolin-2-yl)piperidine-2,6-dione derivatives and uses thereof” (Novartis AG, priority 2017, dated 2021).
Where a name gives a salt, the structure may show the parent alone. Read-outs that look alike come from different tables or passages of the source.

Tests used:
IKZF2 = IKZF2 (Homo sapiens, UniProt Q96SW2+Q9UKS7); assay: Prolabel quantification of IKZF2 protein levels in 293GT cells; type: cell-based; details: for inhibition at 10 µM: read-out: IKZF2 % protein reduction at 10 μM, 24 h; for DC50: Prolabel assay, read-out: IKZF2 EC50
IKZF2, sequence (Q9UKS7 whole entry): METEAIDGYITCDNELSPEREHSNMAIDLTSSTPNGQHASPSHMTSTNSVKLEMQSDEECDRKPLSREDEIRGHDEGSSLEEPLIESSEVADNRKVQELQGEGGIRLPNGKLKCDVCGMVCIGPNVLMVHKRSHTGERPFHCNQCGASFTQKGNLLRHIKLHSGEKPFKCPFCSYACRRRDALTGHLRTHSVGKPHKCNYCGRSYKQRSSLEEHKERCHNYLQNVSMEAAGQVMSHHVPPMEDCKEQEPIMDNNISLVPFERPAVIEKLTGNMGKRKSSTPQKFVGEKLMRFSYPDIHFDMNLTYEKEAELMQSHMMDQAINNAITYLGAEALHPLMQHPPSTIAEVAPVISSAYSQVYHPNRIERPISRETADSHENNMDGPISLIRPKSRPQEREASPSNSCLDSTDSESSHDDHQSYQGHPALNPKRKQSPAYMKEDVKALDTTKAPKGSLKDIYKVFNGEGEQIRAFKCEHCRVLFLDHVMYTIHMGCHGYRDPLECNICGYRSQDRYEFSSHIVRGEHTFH
IKZF2, sequence (Q96SW2 whole entry): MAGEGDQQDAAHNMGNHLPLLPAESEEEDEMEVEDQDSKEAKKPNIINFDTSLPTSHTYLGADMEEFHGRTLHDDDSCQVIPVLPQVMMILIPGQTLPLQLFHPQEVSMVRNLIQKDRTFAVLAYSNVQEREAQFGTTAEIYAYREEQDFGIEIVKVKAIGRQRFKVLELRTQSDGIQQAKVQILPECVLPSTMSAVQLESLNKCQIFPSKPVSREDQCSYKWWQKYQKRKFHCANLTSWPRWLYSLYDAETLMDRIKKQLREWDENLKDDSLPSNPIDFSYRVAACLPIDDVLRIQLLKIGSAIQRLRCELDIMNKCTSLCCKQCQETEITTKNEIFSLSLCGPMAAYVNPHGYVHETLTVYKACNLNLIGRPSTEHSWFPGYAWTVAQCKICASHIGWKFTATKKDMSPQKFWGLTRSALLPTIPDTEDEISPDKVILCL
IKZF2, sequence (Q16531 whole entry partner): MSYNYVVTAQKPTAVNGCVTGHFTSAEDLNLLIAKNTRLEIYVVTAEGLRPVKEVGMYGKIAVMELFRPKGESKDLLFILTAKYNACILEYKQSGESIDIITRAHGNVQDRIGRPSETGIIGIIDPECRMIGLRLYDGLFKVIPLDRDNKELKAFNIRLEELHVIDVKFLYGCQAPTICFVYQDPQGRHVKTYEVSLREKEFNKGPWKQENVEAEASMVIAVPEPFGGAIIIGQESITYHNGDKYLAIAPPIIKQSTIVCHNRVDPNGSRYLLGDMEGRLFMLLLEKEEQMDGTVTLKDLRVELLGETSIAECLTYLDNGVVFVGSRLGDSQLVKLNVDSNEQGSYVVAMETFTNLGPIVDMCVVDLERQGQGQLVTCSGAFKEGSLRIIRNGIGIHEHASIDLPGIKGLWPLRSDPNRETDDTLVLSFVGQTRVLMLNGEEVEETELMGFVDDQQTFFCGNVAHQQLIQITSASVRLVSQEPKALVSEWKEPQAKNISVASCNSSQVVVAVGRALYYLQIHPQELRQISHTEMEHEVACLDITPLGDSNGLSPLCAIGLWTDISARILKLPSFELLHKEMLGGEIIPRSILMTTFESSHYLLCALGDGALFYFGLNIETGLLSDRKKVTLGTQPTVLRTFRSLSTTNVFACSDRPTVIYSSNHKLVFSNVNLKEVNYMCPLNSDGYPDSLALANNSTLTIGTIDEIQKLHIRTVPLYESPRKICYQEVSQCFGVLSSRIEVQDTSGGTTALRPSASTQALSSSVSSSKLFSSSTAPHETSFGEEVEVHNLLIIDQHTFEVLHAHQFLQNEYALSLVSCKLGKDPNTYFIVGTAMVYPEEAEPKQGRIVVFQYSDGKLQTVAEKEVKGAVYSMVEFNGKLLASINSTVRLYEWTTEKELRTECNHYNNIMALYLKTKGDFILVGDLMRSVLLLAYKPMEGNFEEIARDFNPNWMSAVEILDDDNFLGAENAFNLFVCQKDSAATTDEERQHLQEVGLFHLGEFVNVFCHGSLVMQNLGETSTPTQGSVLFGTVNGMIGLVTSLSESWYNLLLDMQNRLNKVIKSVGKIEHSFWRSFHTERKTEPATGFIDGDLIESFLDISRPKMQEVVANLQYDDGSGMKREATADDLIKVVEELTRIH

IKZF1 = IKZF1 (Homo sapiens, UniProt Q13422+Q96SW2); assay: Prolabel quantification of IKZF1 protein levels in 293GT cells; type: cell-based; details: Prolabel assay, read-out: IKZF1 EC50
IKZF1, sequence (Q13422 whole entry): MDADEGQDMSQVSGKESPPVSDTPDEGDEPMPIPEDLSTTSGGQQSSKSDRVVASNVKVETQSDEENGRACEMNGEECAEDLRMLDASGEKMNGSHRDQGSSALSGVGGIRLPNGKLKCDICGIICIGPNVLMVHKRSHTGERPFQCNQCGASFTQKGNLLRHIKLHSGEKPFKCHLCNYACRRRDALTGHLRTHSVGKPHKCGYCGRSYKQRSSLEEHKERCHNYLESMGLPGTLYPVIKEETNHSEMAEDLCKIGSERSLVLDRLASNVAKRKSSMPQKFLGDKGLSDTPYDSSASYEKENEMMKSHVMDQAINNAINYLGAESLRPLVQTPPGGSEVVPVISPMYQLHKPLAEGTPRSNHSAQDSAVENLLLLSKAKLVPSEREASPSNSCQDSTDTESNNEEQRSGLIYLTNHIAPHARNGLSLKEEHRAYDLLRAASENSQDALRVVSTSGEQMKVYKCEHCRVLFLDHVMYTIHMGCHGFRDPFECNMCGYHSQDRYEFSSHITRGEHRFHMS
IKZF1, sequence (Q96SW2 whole entry): as the sequence (Q96SW2 whole entry) above
IKZF1, sequence (Q16531 whole entry partner): as the sequence (Q16531 whole entry partner) above

Structure (SMILES)	inhibition at 10 µM (IKZF2; 24 h, 10 μM, 24 h, 293GT cells) [%]	DC50 (IKZF2; 293GT cells) [µM]	DC50 (IKZF1) [µM]	IKZF2 % protein reduction at 10 μM, 24 h (IKZF2; 10 μM, 24 h, 293GT cells) [%]	IKZF2 protein levels as compared to the control (DMSO) (IKZF2; Prolabel assay in HEK293GT cells, bar graph)	inhibition at 10 µM (IKZF2; 10 μM, 24 h, 293GT cells) [%]
O=C1CCC(N2Cc3cc(C4CCN(Cc5cnc6cnccn56)CC4)ccc3C2=O)C(=O)N1 (stereo not shown) [Compound I-126]	60	0.39	> 30			
O=C1CCC(N2Cc3cc(C4CCN(Cc5ccc(C(F)(F)F)cc5)CC4)ccc3C2=O)C(=O)N1 (stereo not shown) [Compound I-76, 3-(1-oxo-5-(1-(4-(trifluoromethyl)benzyl)piperidin-4-yl)isoindolin-2-yl)piperidine-2,6-dione]	75	0.017	> 30			
O=C1CCC(N2Cc3cc(C4CCN(Cc5cc[nH]c5)CC4)ccc3C2=O)C(=O)N1 (stereo not shown) [Compound I-119, 3-(5-(1-((1H-pyrrol-3-yl)methyl)piperidin-4-yl)-1-oxoisoindolin-2-yl)piperidine-2,6-dione]	65	0.14	> 30			
O=C1CCC(N2Cc3cc(C4CCN(Cc5ncccn5)CC4)ccc3C2=O)C(=O)N1 (stereo not shown) [Compound I-95, 3-(1-oxo-5-(1-(pyrimidin-2-ylmethyl)piperidin-4-yl)isoindolin-2-yl)piperidine-2,6-dione]	20	0.13	> 30			
O=C1CCC(N2Cc3cc(C4C[C@H]5CC[C@@H](C4)N5Cc4ccccc4)ccc3C2=O)C(=O)N1 (stereo partly shown) [Compound I-265, 3-(5-(8-benzyl-8-azabicyclo[3.2.1]octan-3-yl)-1-oxoisoindolin-2-yl)piperidine-2,6-dione HC(O)OH salt]	70	0.005	> 50			
O=C1CCC(N2Cc3cc(C4CCN(Cc5ccccc5OC(F)F)CC4)ccc3C2=O)C(=O)N1 (stereo not shown) [Compound I-80, 3-(5-(1-(2-(difluoromethoxy)benzyl)piperidin-4-yl)-1-oxoisoindolin-2-yl)piperidine-2,6-dione]	60	0.012	> 30			
CCN1CCC(c2ccc3c(c2)CN(C2CCC(=O)NC2=O)C3=O)CC1 (stereo not shown) [Compound I-1, 3-(5-(1-ethylpiperidin-4-yl)-1-oxoisoindolin-2-yl)piperidine-2,6-dione]		0.067	> 30			60
Cc1ccc(CN2CCC(c3ccc4c(c3)CN(C3CCC(=O)NC3=O)C4=O)CC2)cc1F (stereo not shown) [Compound I-69, 3-(5-(1-(3-fluoro-4-methylbenzyl)piperidin-4-yl)-1-oxoisoindolin-2-yl)piperidine-2,6-dione]	80	0.015	> 30		decreased	
O=C1CCC(N2Cc3cc(C4CCN(Cc5cccc6cccnc56)CC4)ccc3C2=O)C(=O)N1 (stereo not shown) [Compound I-114, 3-(1-oxo-5-(1-(quinolin-8-ylmethyl)piperidin-4-yl)isoindolin-2-yl)piperidine-2,6-dione]	40	0.029	> 50			
O=C1CCC(N2Cc3cc(C4CCN(Cc5cccc6ccccc56)CC4)ccc3C2=O)C(=O)N1 (stereo not shown) [Compound I-49, 3-(5-(1-(naphthalen-1-ylmethyl)piperidin-4-yl)-1-oxoisoindolin-2-yl)piperidine-2,6-dione]	60	0.004	> 30			
O=C1CCC(N2Cc3cc(C4CCN(Cc5cnc6ncccn56)CC4)ccc3C2=O)C(=O)N1 (stereo not shown) [Compound I-132, 3-(5-(1-(imidazo[1,2-a]pyrimidin-3-ylmethyl)piperidin-4-yl)-1-oxoisoindolin-2-yl)piperidine-2,6-dione]	60	1.08	> 30			
CC(C)CN1CCC(c2ccc3c(c2)CN(C2CCC(=O)NC2=O)C3=O)CC1 (stereo not shown) [Compound I-4, 3-(5-(1-isobutylpiperidin-4-yl)-1-oxoisoindolin-2-yl) piperidine-2,6-dione]	60	0.031	> 30			
O=C1CCC(N2Cc3cc(C4CCN(Cc5ccc(C(=O)O)cc5)CC4)ccc3C2=O)C(=O)N1 (stereo not shown) [Compound I-72, 4-((4-(2-(2,6-dioxopiperidin-3-yl)-1-oxoisoindolin-5-yl)piperidin-1-yl)methyl)benzoic acid]	55	4.5	> 30			
Cn1cc(CN2CCC(c3ccc4c(c3)CN(C3CCC(=O)NC3=O)C4=O)CC2)cn1 (stereo not shown) [Compound I-115, 3-(5-(1((1-methyl-1H-pyrazol-4-yl)methyl)piperidin-4-yl)-1-oxoisoindolin-2-yl)piperidine-2,6-dione]	60	0.072	> 30			
O=C1CCC(N2Cc3cc(C4CCN(Cc5ccc(C(F)(F)F)cn5)CC4)ccc3C2=O)C(=O)N1 (stereo not shown) [Compound I-78, 3-(1-oxo-5-(1-((5-(trifluoromethyl)pyridin-2-yl)methyl)piperidin-4-yl)isoindolin-2-yl)piperidine-2,6-dione]	40	0.21	> 30			

Now from value to compound, other results behind:

inhibition at 10 µM (IKZF2; 24 h, 10 μM, 24 h, 293GT cells) [%]	DC50 (IKZF2; 293GT cells) [µM]	DC50 (IKZF1) [µM]	IKZF2 % protein reduction at 10 μM, 24 h (IKZF2; 10 μM, 24 h, 293GT cells) [%]	IKZF2 protein levels as compared to the control (DMSO) (IKZF2; Prolabel assay in HEK293GT cells, bar graph)	Structure (SMILES)	inhibition at 10 µM (IKZF2; 10 μM, 24 h, 293GT cells) [%]
80	0.012	> 30			O=C1CCC(N2Cc3cc(C4CCN(Cc5cnn(-c6ccccc6)c5)CC4)ccc3C2=O)C(=O)N1 (stereo not shown) [Compound I-288, 3-(1-oxo-5-(1-((1-phenyl-1H-pyrazol-4-yl)methyl)piperidin-4-yl)isoindolin-2-yl)piperidine-2,6-dione]	
30	0.17	> 30			O=C1CCC(N2Cc3cc(C4CCCN(Cc5ccccc5)CC4)ccc3C2=O)C(=O)N1 (single isomer, unassigned) [Compound I-190, 3-(5-(1-benzylazepan-4-yl)-1-oxoisoindolin-2-yl)piperidine-2,6-dione]	
70	0.012	> 30			CC(C)Oc1ccc(CN2CCC(c3ccc4c(c3)CN(C3CCC(=O)NC3=O)C4=O)CC2)cn1 (stereo not shown) [Compound I-285, 3-(5-(1-((6-isopropoxypyridin-3-yl)methyl)piperidin-4-yl)-1-oxoisoindolin-2-yl)piperidine-2,6-dione]	
60	0.076	> 30			CC(C)n1nccc1CN1CCC(c2ccc3c(c2)CN(C2CCC(=O)NC2=O)C3=O)CC1 (stereo not shown) [Compound I-289, 3-(5-(1-((1-isopropyl-1H-pyrazol-5-yl)methyl)piperidin-4-yl)-1-oxoisoindolin-2-yl)piperidine-2,6-dione]	
70	0.01	> 30			CC(C)Sc1ccc(CN2CCC(c3ccc4c(c3)CN(C3CCC(=O)NC3=O)C4=O)CC2)cc1 (stereo not shown) [Compound I-228, 3-(5-(1-(4-(isopropylthio)benzyl)piperidin-4-yl)-1-oxoisoindolin-2-yl)piperidine-2,6-dione]	
40	0.037	> 50			Cc1cc(CN2CCC(c3ccc4c(c3)CN(C3CCC(=O)NC3=O)C4=O)CC2)on1 (stereo not shown) [Compound I-245, 3-(5-(1-((3-methylisoxazol-5-yl)methyl)piperidin-4-yl)-1-oxoisoindolin-2-yl)piperidine-2,6-dione]	
	0.21	> 30	20		O=C1CCC(N2Cc3cc(C4CCCN(Cc5ccccc5)CC4)ccc3C2=O)C(=O)N1 (single isomer, unassigned) [Compound I-273, 3-(5-(1-benzylazepan-4-yl)-1-oxoisoindolin-2-yl)piperidine-2,6-dione]	
75	0.033	> 30			O=C1CCC(N2Cc3cc(C4CCN(Cc5cc(-c6ccccn6)n[nH]5)CC4)ccc3C2=O)C(=O)N1 (stereo not shown) [Compound I-201, 3-(1-oxo-5-(1-((3-(pyridin-2-yl)-1H-pyrazol-5-yl)methyl)piperidin-4-yl)isoindolin-2-yl)piperidine-2,6-dione]	
40	2.44	> 30			NC(=O)c1nc(CN2CCC(c3ccc4c(c3)CN(C3CCC(=O)NC3=O)C4=O)CC2)no1 (stereo not shown) [Compound I-235, 3-((4-(2-(2,6-dioxopiperidin-3-yl)-1-oxoisoindolin-5-yl)piperidin-1-yl)methyl)-1,2,4-oxadiazole-5-carboxamide]	
40	0.72	> 30			O=C1CCC(N2Cc3cc(C4CCN(Cc5ccnn5-c5ccccc5)CC4)ccc3C2=O)C(=O)N1 (stereo not shown) [Compound I-286, 3-(1-oxo-5-(1-((1-phenyl-1H-pyrazol-5-yl)methyl)piperidin-4-yl)isoindolin-2-yl)piperidine-2,6-dione]	
80	0.009	> 30			O=C1CCC(N2Cc3cc(C4CCN(Cc5ccc6c(c5)NCCS6)CC4)ccc3C2=O)C(=O)N1 (stereo not shown) [Compound I-141, 3-(5-(1-((3,4-dihydro-2H-benzo[b][1,4]thiazin-6-yl)methyl)piperidin-4-yl)-1-oxoisoindolin-2-yl)piperidine-2,6-dione]	
75	0.03	> 30			O=C1CCC(N2Cc3cc(C4CCN(Cc5ccc(S(=O)(=O)C(F)F)cc5)CC4)ccc3C2=O)C(=O)N1 (stereo not shown) [Compound I-252, 3-(5-(1-(4-((difluoromethyl)sulfonyl)benzyl)piperidin-4-yl)-1-oxoisoindolin-2-yl)piperidine-2,6-dione]	
40	0.59	> 30			O=C1CCC(N2Cc3cc(C4CCN([C@@H](CO)c5ccccc5)CC4)ccc3C2=O)C(=O)N1 (single isomer, unassigned) [Compound I-202]	
60	0.004	> 30			COC1CCN(c2ccc(CN3CCC(c4ccc5c(c4)CN(C4CCC(=O)NC4=O)C5=O)CC3)cc2)CC1 (stereo not shown) [Compound I-227, 3-(5-(1-(4-(4-methoxypiperidin-1-yl)benzyl)piperidin-4-yl)-1-oxoisoindolin-2-yl)piperidine-2,6-dione]	
